Reference: US11028058B2, “Heterocyclic compounds as adenosine antagonists” (NUVATION BIO INC., priority 2017, dated 2021)

Experiments:
[1] = target: HEK-293 cells expressing human recombinant adenosine A2A receptor (Homo sapiens (Human), UniProt P29274); test: cAMP assay, Assay 1 (HTRF kit); type: cell-based; conditions: HEK293, 100 nM, read-out: A2a cAMP (% inh @ 100 nM)
Protocol: The functional activity of compounds was tested using one of the two assays to detect the present of cAMP. Activation of G-protein coupled receptors (such as A2A) results in activation of adenylcyclase which converts ATP into cAMP which is used as a downstream signaling molecule. Therefore, molecules which act as GPCR (or specifically A2A receptor) antagonists cause a decrease in intracellular cAMP concentration.
Both assays used HEK-293 cells expressing human recombinant adenosine A2A receptor were grown prior to the test in media without antibiotic.
12 μL of cells were mixed with 6 μL of the test compound at increasing concentrations and then incubated for 10 min. Thereafter 6 μL of the reference agonist was added at a final concentration corresponding to the historical EC80. The plates were then incubated for 30 min at room temperature. After addition of the lysis buffer and 1 hour incubation, cAMP concentrations were estimated, according to the manufacturer specification, with the HTRF® kit.

adenosine A2A receptor = adenosine A2A receptor (Homo sapiens (Human), UniProt P29274); test: A2A adenosine receptor radioligand binding competition assay (filter plates)
Protocol: Binding of selected compounds to the adenosine A2A, A1, A2B, and A3 receptors was tested using a binding competition assay.
The general protocol for the radioligand binding competition assay was as follows. Competition binding was performed in duplicate in the wells of a 96 well plate (Master Block, Greiner, 786201) containing binding buffer (optimized for each receptor), membrane extracts (amount of protein/well optimized for each receptor), radiotracer (final concentration optimized for each receptor), and test compound. Nonspecific binding was determined by co-incubation with 200-fold excess of cold competitor. The samples were incubated in a final volume of 0.1 mL at 25° C. for 60 minutes and then filtered over filter plates. Filters were washed six times with 0.5 mL of ice-cold washing buffer (optimized for each receptor) and 50 μL of Microscint 20 (Packard) were added on each filter. The filter plates were sealed, incubated 15 min on an orbital shaker and scintillation counted with a TopCount for 30 sec/filter.
For the A2A adenosine receptor radioligand binding assay, the following modifications were made to the general protocol. GF/C filters (Perkin Elmer, 6005174), presoaked in 0.01% Brij for 2 h at room temperature were used. Filters were washed six times with 0.5 mL of ice-cold washing buffer (50 mM Tris pH 7.4) and 50 μL of Microscint 20 (Packard) was added in each well. The plates were then incubated for 15 min on an orbital shaker and then counted with a TopCount™ for 1 min/well. Another radioligand binding assay was used to evaluate the binding affinity for the adenosine A2A receptor assay was performed in duplicate in the wells of a 384 plate. Assay buffer contained DPBS 500 mM, MgCl2 0.1 mM, and 1% DMSO. Membrane-bead suspension was prepared by mixing 25.98 μL of human adenosine A2A membrane preparation (Perkin Elmer, RBHA2AM400UA) at 33.4 μg/mL, 28 μL of ADA at 20 μg/mL, and 932 μL of SPA beads at 3.33 mg/mL) and incubated the mixture for 20 min at room temperature. Mixed 20 μL of radiotracer (^3H-SCH 58261) at 15 nM to each well containing test articles at various concentrations and centrifuge the plate at 1000 rpm for 1 minute. Added 30 μL of the membraine-bead suspension to each well. Sealed the plates and incubated for 1 hr at room temperature with vigorous mixing on a plate mixer. Plates were read on Microbeta^2 (Perkin Elmer, 2450-0010).

HEK-293 cells expressing human recombinant adenosine A2A receptor, sequence (P29274 whole entry): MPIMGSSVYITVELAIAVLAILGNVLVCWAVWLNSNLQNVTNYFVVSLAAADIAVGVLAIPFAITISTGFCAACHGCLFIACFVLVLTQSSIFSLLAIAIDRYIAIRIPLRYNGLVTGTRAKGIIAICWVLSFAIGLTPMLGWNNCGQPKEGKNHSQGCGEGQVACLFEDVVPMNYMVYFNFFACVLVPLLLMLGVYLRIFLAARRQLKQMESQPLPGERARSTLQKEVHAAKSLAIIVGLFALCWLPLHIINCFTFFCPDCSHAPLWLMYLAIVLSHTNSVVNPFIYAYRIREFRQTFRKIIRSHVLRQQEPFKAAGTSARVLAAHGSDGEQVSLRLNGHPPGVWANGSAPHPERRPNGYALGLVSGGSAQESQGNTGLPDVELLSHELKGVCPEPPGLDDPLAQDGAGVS
adenosine A2A receptor, sequence (P29274 whole entry): as above

Row | inhibition at 0.1 µM [1] [%] | A2A radioligand binding competition assay % residual binding @ 100 nM (adenosine A2A receptor) | A2A radioligand binding competition assay % residual binding @ 3000 nM (adenosine A2A receptor) | A2A radioligand binding competition assay % residual binding @ 300 nM (adenosine A2A receptor) | A2A radioligand binding competition assay % residual binding @ 1000 nM (adenosine A2A receptor) [%] | Compound
1 | 49 |  |  |  |  | Cc1nc2cc(-c3ncc(N)nc3-c3ccccc3)ccc2[nH]1 [1.9, 5-(2-methyl-1H-benzo[d]imidazol-5-yl)-6-phenylpyrazin-2-amine]
2 | 1.4 |  |  |  |  | Nc1cnc(-c2ccc3[nH]ccc3c2)c(-c2ccccc2)n1 [Compound No. 1.4, 5-(1H-indol-5-yl)-6-phenylpyrazin-2-amine]
3 | 100 | 77% | 39% | 70% | 64 | Nc1cnc(-c2ccc3[nH]cnc3c2)c(-c2ccccc2)n1 [Compound No. 1.10, 5-(1H-benzo[d]imidazol-6-yl)-6-phenylpyrazin-2-amine]
4 | 94 |  | 12% | 66% | 12 | Nc1cnc(-c2ccc3ncccc3c2)c(-c2ccccc2)n1 [Compound No. 1.12, 6-phenyl-5-(quinolin-6-yl)pyrazin-2-amine]
5 | 100 | 76% | 12% | 48% | 29 | Nc1nc(-c2ccccc2)c(-c2ccc3ncccc3c2)nc1Br [Compound No. 1.14, 3-bromo-6-phenyl-5-(quinolin-6-yl)pyrazin-2-amine]
6 | 0 |  | 104/ND/ND/ND % |  |  | Nc1cnc(-c2ccc3ncccc3c2)c(-c2ccc(F)cc2)n1 [Compound No. 1.15, 6-(4-fluorophenyl)-5-(quinolin-6-yl)pyrazin-2-amine]
7 | 0 |  | 80/ND/ND/ND % |  |  | Nc1cnc(-c2ccc3nccnc3c2)c(-c2ccccc2)n1 [Compound No. 1.16, 6-phenyl-5-quinoxalin-6-yl-pyrazin-2-amine]
8 | 99 |  | 8/ND/ND/ND % |  |  | Nc1cnc(-c2cc(Cl)c3ncccc3c2)c(-c2ccccc2)n1 [Compound No. 1.17, 5-(8-chloroquinolin-6-yl)-6-phenylpyrazin-2-amine]
9 | 24 |  | 39/ND/ND/ND % |  |  | Nc1cnc(-c2ccc3ncccc3c2)c(-n2cccn2)n1 [Compound No. 1.22, 6-(1H-pyrazol-1-yl)-5-(quinolin-6-yl)pyrazin-2-amine]

The next lines start with the compound.

Row | Compound | inhibition at 0.1 µM [1] [%] | A2A radioligand binding competition assay % residual binding @ 100 nM (adenosine A2A receptor) | A2A radioligand binding competition assay % residual binding @ 3000 nM (adenosine A2A receptor) | A2A radioligand binding competition assay % residual binding @ 300 nM (adenosine A2A receptor) | A2A radioligand binding competition assay % residual binding @ 1000 nM (adenosine A2A receptor) [%]
10 | Nc1cnc(-c2cc(Cl)c(O)c(Cl)c2)c(-c2ccccc2)n1 [Compound 1.2, 4-(5-amino-3-phenylpyrazin-2-yl)-2,6-dichlorophenol] | 100 | ND/ND/ND/62% |  |  | 
11 | CC(=O)Nc1cnc(-c2ccc(O)c(Cl)c2)c(-c2ccccc2)n1 [Compound 1.3, N-(5-(3-chloro-4-hydroxyphenyl)-6-phenylpyrazin-2-yl)acetamide] | 100 | ND/ND/ND/57% |  |  | 
12 | N#Cc1nc(-c2ccc3ncccc3c2)c(-c2ccccc2)nc1N [Compound 1.19, 3-amino-5-phenyl-6-(quinolin-6-yl)pyrazine-2-carbonitrile] | 100 |  | 4/ND/ND/ND % |  | 
13 | CC(C)(C)c1cc(-c2ncc(N)nc2-c2ccccc2)ccc1O [Compound No. 1.6, 4-(5-amino-3-phenylpyrazin-2-yl)-2-tert-butylphenol] | 47 |  |  |  | 
14 | Nc1cnc(-c2ccc(O)cc2)c(-c2ccccc2)n1 [Compound No. 1.7, 4-(5-amino-3-phenylpyrazin-2-yl)phenol] | 100 |  |  | ND/ND/100/ND % | 
15 | Nc1cnc(-c2ccc(O)c(Cl)c2)c(-c2ccco2)n1 [Compound No. 1.8, 4-(5-amino-3-(furan-2-yl)pyrazin-2-yl)-2-chlorophenol] | 100 |  |  | ND/ND/39/ND % | 
16 | N#Cc1cc(-c2ncc(N)nc2-c2ccccc2)ccc1O [Compound No. 1.11, 5-(5-amino-3-phenylpyrazin-2-yl)-2-hydroxybenzonitrile] | 100 |  |  | ND/ND/126/ND % | 
17 | Nc1cnc(-c2cc(Cl)c3[nH]cnc3c2)c(-c2ccccc2)n1 [Compound No. 1.13, 5-(7-chloro-1H-benzo[d]imidazol-5-yl)-6-phenylpyrazin-2-amine] | 51 | 83% | 18% | 69% | 17
18 | Nc1cnc(-c2ccc3ocnc3c2)c(-c2ccccc2)n1 [Compound No. 1.18, 5-(benzo[d]oxazol-5-yl)-6-phenylpyrazin-2-amine] | 14 |  | 100/ND/ND/ND % |  | 
19 | Cc1ccc(-c2nc(N)cnc2-c2ccc3ncccc3c2)o1 [Compound No. 1.20, 6-(5-methylfuran-2-yl)-5-(quinolin-6-yl)pyrazin-2-amine] | 81 |  | 3/ND/ND/ND % |  | 
20 | Cc1ccc(-c2nc(N)cnc2-c2cc(Cl)c3ncccc3c2)o1 [Compound No. 1.21, 5-(8-chloroquinolin-6-yl)-6-(5-methylfuran-2-yl)pyrazin-2-amine] | 100 |  | 5/ND/ND/ND % |  | 
